Measured values reported in article PMC8249783, “A novel multikinase inhibitor SKLB‐YTH‐60 ameliorates inflammation and fibrosis in bleomycin‐induced lung fibrosis mouse models” (Cell Proliferation, 2021).

Key:
[1] = tested on: α‐SMA, collagen I and TGF‐β1 mRNA in NIH‐3T3 cells; test: Real‐time qPCR of fibrosis markers in TGF‐β1‐treated fibroblasts; format: cell-based, mouse; details: NIH‐3T3, TGF‐β1 and 2.5 μmol·L^−1 for 24 hours
Method: Total RNA of lung tissues or cells was extracted by using AxyPrep Multisource Total RNA Miniprep Kit (Axygen). Reverse transcription was carried out with Evo M‐MLV RT Kit with gDNA Clean (Accurate, AG11711). qRTPCR was conducted using SYBR Green Pro Taq HS (Accurate, AG11701).

[2] = tested on: lung MDSCs and macrophages; test: Flow cytometry of MDSCs and macrophages in lung tissue of BLM mice; format: in vivo, C57BL/6 mice; details: 30 mg·kg^−1 i.p.
Method: (§1) Male C57BL/6 mice (8‐10 weeks old) were purchased from HFK Bioscience Co. Ltd. All animal experiments were permitted by the Institutional Animal Care and Treatment Committee of Sichuan University in China (New Permit Number: 20190524003). Lung fibrosis was induced using BLM treatment (2 mg·kg^−1). All C57BL/6 mice were divided into five groups (n = 10): a BLM + Nintedanib group (Nintedanib, 30 mg·kg^−1), a BLM + YTH‐60 group (YTH‐60, 15 mg·kg^−1 and 30 mg·kg^−1), a control group (Sham), and a bleomycin group (Vehicle). At the beginning, the mice were anaesthetized using 10% chloral hydrate, dissolved BLM with saline and administered intratracheally. To evaluate the preventive effect, the next day after BLM challenge, YTH‐60 and Nintedanib were administered intraperitoneally daily for 13 days (fibroproliferation) to the mice. All mice were sacrificed 24 hours after the last drug injection, the lungs and other organs were taken for the subsequent analysis. To test the therapeutic effect, after the 7th day of BLM treatment, mice were injected intraperitoneally with YTH‐60, Nintedanib and vehicle daily for 7 consecutive days (fibroproliferation).
We analysed the percentage of MDSCs and macrophages by Flow cytometry (FCM). ^22 Use scissors to cut approximately 30 mg of mouse lung tissues into small pieces and use 5 mL of collagenase‐IV with a concentration of 1 mg·mL^−1, digested at 37°C for at least 1 hour. Centrifuge at 400 g for 5 minutes and discard the supernatant. Then, add another 5 mL PBS to resuspend, after precipitation, taken the supernatant and mixed with the corresponding fluorochromium binding antibody, incubate for 30 minutes in the dark at 4°C (MDSCs with PE^−CD11b^−, FITC^−Gr1^− conjugated dual labelling and macrophages with PE^−F4/80^−, FITC^−CD11b^− conjugated dual labelling). The data were acquired with a FACS Canton II NovoCyte (ACEA).

[3] = tested on: TNF‐α, IFN‐γ, IL‐2, IL‐4, IL‐10 and IL‐17A; test: Serum cytokines in BLM mice (Th1/Th2/Th17 Cytokine Kit); format: in vivo, C57BL/6 mice; details: day 14
Method: as §1
IL‐2, IL‐4, IL‐10, IL‐17A, TNF‐α and IFN‐γ levels in mouse serum were determined using a mouse Th1/Th2/Th17 Cytokine Kit (BD Biosciences) according to the manufacturer's instructions. […]

## COc1cc(OC)c(Cl)c(-c2ccc3c(/C=C/c4ccc(N(C)C(=O)CN5CCN(C)CC5)cc4)n[nH]c3c2)c1Cl [YTH‐60, (E)‐N‐(4‐(2‐(6‐(2,6‐dichloro‐3,5‐dimethoxyphenyl)‐1H‐indazol‐3‐yl)vinyl)phenyl)‐N‐methyl‐2‐(4‐methylpiperazin‐1‐yl)acetamide]
[1]
  mRNA levels of α‐SMA, collagen I and TGF‐β1 (in words): reduced this effect
[2]; day 14, BLM group 19.9%, sham 9.9%
  percentage of CD11b^+F4/80^+ cells (macrophages) in lung: 9.27%
[2]; day 14, BLM group 20.5%, sham 5.14%
  percentage of CD11b^+Gr1^+ cells (MDSCs) in lung: 7.07%
[3]
  inflammatory cytokines in serum (in words): reduced the expression level of these inflammatory cytokines
